Measured values published in US4661630A, “Carboxylic acid amides and their derivatives” (Eisai Co., Ltd., priority 1982, dated 1987).

Key:
[1] = system: maximal electroshock seizures in mice; experiment: Anti-electroshock convulsion activity (maximal electroshock seizures, method of Goodman et al.); type: in vivo; details: 2 hours after oral administration, n = 8, 25 mA, 0.25 sec.
Procedure: The effects of the representative compounds of the present invention on maximal electroshock seizures in mice were determined by the method of Goodman et al. [Goodman L. S., Singh Grewal M., Brown W. C. and Swinyard E. A., J. Pharmacol, Exp. Ther., 108, 168-176 (1953)]. At 2 hours after oral administration of test compounds, current (25 mA, 0.25 sec.) was delivered to animals with an electroshock device (made by Unique Medical).

[2] = system: metrazol-induced convulsive death; experiment: Anti-metrazol activity (metrazol-induced convulsive death); type: in vivo; details: oral doses of 20 to 80 mg/kg, male STD-ddY mice
From the text: (a) Anti-metrazol activity of the compounds of the present invention was examined in male STD-ddY mice.

[3] = system: mortality induced by potassium cyanide; experiment: Anti-hypoxic activity (mortality induced by potassium cyanide); type: in vivo; details: 10 to 20 mg/kg, p.o., male STD-ddY mice
[4] = Acute toxicity (oral LD50); details: mouse, in vivo, mice
From the text: (c) Acute toxicity of the compounds of the present invention was relatively low.

O=C(O)[C@@H]1CCCC[C@H]1C(=O)Nc1cc(C(F)(F)F)cc(C(F)(F)F)c1 (relative stereo) [Compound B, trans-2-[(3,5-bistrifluoromethyl)-phenyl-aminocarbonyl]-cyclohexane carboxylic acid]
Inhibition (%) of tonic extension ([1]; 80 mg/kg p.o.): 0% | Inhibition (%) of tonic extension ([1]; 320 mg/kg p.o.): 100%

CC1CC[C@H](C(=O)O)[C@H](C(=O)Nc2cc(C(F)(F)F)cc(C(F)(F)F)c2)C1 (relative stereo) [Compound F, cis-2-[(3,5-bistrifluoromethyl-phenyl)-aminocarbonyl]-4(5)-methyl-cyclohexane carboxylic acid]
Inhibition (%) of tonic extension ([1]; 40 mg/kg p.o.): 50% | Inhibition (%) of tonic extension ([1]; 80 mg/kg p.o.): 100% | Inhibition (%) of tonic extension ([1]; 320 mg/kg p.o.): 100%

O=C1C2CC=CCC2C(=O)N1c1cc(C(F)(F)F)cc(C(F)(F)F)c1 (stereo not drawn) [Compound H, N-(3,5-bistrifluoromethylphenyl)-4-cyclohexene-1,2-dicarboximide]
Inhibition (%) of tonic extension ([1]; 80 mg/kg p.o.): 50% | Inhibition (%) of tonic extension ([1]; 320 mg/kg p.o.): 87.5%

O=C(Nc1cc(C(F)(F)F)cc(C(F)(F)F)c1)[C@H]1CC=CC[C@H]1C(=O)O (relative stereo) [Compound C, cis-6-[(3,5-bistrifluoromethyl-phenyl)-aminocarbonyl]-3-cyclohexene carboxylic acid]
Inhibition (%) of tonic extension ([1]; 10 mg/kg p.o.): 12.5% | Inhibition (%) of tonic extension ([1]; 20 mg/kg p.o.): 100% | Inhibition (%) of tonic extension ([1]; 40 mg/kg p.o.): 100% | Inhibition (%) of tonic extension ([1]; 80 mg/kg p.o.): 100% | Inhibition (%) of tonic extension ([1]; 320 mg/kg p.o.): 100% | antagonism against metrazol-induced convulsive death [2]: dose-dependent antagonism | anti-hypoxic activity (antagonism against mortality induced by potassium cyanide) [3]: potent anti-hypoxic activity | LD50 [4]: 1000 to 2000 mg/kg

O=C(Nc1cc(C(F)(F)F)cc(C(F)(F)F)c1)[C@H]1CCCC[C@H]1C(=O)O (relative stereo) [Compound A, cis-2-[(3,5-bistrifluoromethyl)-phenyl-aminocarbonyl]-cyclohexane carboxylic acid]
Inhibition (%) of tonic extension ([1]; 10 mg/kg p.o.): 25% | Inhibition (%) of tonic extension ([1]; 20 mg/kg p.o.): 50% | Inhibition (%) of tonic extension ([1]; 40 mg/kg p.o.): 100% | Inhibition (%) of tonic extension ([1]; 80 mg/kg p.o.): 100% | Inhibition (%) of tonic extension ([1]; 320 mg/kg p.o.): 100% | antagonism against metrazol-induced convulsive death [2]: dose-dependent antagonism | anti-hypoxic activity (antagonism against mortality induced by potassium cyanide) [3]: potent anti-hypoxic activity | LD50 [4]: 1000 to 2000 mg/kg

O=C(Nc1cc(C(F)(F)F)cc(C(F)(F)F)c1)[C@@H]1[C@@H]2CC[C@@H](C2)[C@@H]1C(=O)O (relative stereo) [Compound E, cis-endo-3-[(3,5-bistrifluoromethyl-phenyl)-aminocarbonyl]-bicyclo-(2,2,1)-heptane-2-carboxylic acid]
Inhibition (%) of tonic extension ([1]; 80 mg/kg p.o.): 0% | Inhibition (%) of tonic extension ([1]; 320 mg/kg p.o.): 100%

O=C(O)C1=C(C(=O)Nc2cc(C(F)(F)F)cc(C(F)(F)F)c2)CCCC1 [Compound D, 2-[(3,5-bistrifluoromethyl-phenyl)-aminocarbonyl]-1-cyclohexenecarboxylic acid]
Inhibition (%) of tonic extension ([1]; 80 mg/kg p.o.): 0% | Inhibition (%) of tonic extension ([1]; 320 mg/kg p.o.): 100%

O=C1C2CCCCC2C(=O)N1c1cc(C(F)(F)F)cc(C(F)(F)F)c1 (stereo not drawn) [Compound G, N-(3,5-bistrifluoromethylphenyl)-cyclohexane-1,2-dicarboximide]
Inhibition (%) of tonic extension ([1]; 40 mg/kg p.o.): 25% | Inhibition (%) of tonic extension ([1]; 80 mg/kg p.o.): 100% | Inhibition (%) of tonic extension ([1]; 320 mg/kg p.o.): 100%
